In ChEMBL document CHEMBL1201862, “PubChem BioAssay data set” (2004):
Calls of active or inactive are those of the source.

Key:
cells [1] = format: functional, cell-based
cells [2] = format: functional, cell-based; remark: listed apart in the source
[3] = blockers of HIV-1 ZM109 envelope-driven cell-cell fusion – HeLa effector, CEM target cells, luciferase, cherry-pick, dose response (AID 652058); format: functional, cell-based;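 note: luciferase signal from HIV-1 Env mediated cell-cell fusion of effector and target cells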
[4] = HIV-1 AD8 envelope cell-cell fusion blockers – cherry-pick, dose response (AID 652062); format: functional, cell-based;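 note: luciferase signal from cell-cell fusion driven by HIV-1 clade B AD8 Env; potency is for inhibitors of fusion seen as a drop in luminescence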
[5] = Luminescence Cell-Based Dose Response HTS to Identify Inhibitors of 5'UTR Stem-Loop Driven Prion Protein mRNA Translation in H4 Neuroglioblastoma Cells. [Related pubchem assays: 1827 (Project Summary), 1813 (Primary HTS)]; format: functional
[6] = luciferase reporter signal suppression in cells – H4 neuroglioma cells, luminescence, dose response (AID 1990); format: functional, cell-based
[7] = blockers of HIV-1 envelope-mediated cell-cell fusion – cherry-pick, dose response (AID 652057); format: functional, cell-based
[8] = off-target signal loss in HeLa-CEM21 co-culture – HeLa F-luc CTL cells, cherry-picked, counter-screen for HIV-1 Env fusion inhibitor project, dose response (AID 652040); format: functional, cell-based;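 note: potency for signal decrease marking cytotoxic or nonspecific inhibition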
[9] = target: T1, Histone-lysine N-methyltransferase NSD2 (Homo sapiens, UniProt O96028); format: biochemical
T1 sequence (O96028 whole entry): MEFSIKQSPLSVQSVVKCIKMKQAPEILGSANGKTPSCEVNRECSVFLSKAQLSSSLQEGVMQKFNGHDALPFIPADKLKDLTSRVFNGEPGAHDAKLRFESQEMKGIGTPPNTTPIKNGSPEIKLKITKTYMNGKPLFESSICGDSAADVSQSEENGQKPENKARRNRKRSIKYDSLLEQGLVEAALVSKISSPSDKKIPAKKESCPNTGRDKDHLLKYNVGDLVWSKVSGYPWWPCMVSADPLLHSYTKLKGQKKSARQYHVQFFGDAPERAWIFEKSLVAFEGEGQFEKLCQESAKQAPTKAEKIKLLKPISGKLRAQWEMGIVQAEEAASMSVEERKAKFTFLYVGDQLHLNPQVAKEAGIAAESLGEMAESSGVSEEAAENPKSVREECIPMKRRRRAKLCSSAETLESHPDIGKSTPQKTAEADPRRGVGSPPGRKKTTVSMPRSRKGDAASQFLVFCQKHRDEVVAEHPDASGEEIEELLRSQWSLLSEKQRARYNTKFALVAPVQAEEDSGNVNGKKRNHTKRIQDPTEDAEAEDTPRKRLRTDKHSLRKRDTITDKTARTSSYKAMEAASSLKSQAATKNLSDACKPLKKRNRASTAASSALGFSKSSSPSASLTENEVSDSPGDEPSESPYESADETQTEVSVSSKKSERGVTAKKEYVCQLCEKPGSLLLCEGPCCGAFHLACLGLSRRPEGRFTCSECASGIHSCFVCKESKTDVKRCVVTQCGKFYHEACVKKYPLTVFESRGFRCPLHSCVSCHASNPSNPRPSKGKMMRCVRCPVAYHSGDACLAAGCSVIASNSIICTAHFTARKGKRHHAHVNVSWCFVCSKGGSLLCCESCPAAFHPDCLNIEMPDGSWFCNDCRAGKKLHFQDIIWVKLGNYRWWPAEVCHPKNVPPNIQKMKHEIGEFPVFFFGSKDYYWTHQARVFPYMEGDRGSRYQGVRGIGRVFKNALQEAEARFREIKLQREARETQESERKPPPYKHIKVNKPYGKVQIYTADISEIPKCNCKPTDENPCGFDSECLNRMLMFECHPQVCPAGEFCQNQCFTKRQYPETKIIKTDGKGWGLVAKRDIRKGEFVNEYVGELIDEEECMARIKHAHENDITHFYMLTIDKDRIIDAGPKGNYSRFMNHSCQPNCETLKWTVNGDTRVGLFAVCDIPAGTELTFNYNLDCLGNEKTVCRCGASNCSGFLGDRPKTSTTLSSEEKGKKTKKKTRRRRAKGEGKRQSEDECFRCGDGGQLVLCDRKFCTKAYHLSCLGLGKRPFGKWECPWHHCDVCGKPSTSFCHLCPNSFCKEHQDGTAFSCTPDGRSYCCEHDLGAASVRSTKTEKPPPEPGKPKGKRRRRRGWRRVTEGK

Cytochrome P450 3A4 = Cytochrome P450 3A4 (Homo sapiens, UniProt P08684);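 note: CYP3A4 tested as one member of a cytochrome P450 panel screen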
Cytochrome P450 3A4, sequence (P08684 whole entry): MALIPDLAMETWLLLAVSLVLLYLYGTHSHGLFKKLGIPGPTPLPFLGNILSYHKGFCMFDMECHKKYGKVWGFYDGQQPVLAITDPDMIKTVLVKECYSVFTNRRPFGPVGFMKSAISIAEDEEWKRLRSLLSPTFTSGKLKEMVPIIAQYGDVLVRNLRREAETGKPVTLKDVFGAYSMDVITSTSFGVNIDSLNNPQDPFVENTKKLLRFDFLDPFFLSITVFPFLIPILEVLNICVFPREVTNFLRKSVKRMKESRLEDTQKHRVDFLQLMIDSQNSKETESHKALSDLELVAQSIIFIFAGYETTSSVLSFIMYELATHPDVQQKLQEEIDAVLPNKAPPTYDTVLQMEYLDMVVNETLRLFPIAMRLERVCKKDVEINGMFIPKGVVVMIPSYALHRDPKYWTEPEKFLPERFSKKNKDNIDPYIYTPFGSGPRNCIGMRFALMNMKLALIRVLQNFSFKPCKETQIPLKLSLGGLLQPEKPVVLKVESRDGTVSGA

Cytochrome P450 2C9 = Cytochrome P450 2C9 (Homo sapiens, UniProt P11712)
Cytochrome P450 2C9, sequence (P11712 whole entry): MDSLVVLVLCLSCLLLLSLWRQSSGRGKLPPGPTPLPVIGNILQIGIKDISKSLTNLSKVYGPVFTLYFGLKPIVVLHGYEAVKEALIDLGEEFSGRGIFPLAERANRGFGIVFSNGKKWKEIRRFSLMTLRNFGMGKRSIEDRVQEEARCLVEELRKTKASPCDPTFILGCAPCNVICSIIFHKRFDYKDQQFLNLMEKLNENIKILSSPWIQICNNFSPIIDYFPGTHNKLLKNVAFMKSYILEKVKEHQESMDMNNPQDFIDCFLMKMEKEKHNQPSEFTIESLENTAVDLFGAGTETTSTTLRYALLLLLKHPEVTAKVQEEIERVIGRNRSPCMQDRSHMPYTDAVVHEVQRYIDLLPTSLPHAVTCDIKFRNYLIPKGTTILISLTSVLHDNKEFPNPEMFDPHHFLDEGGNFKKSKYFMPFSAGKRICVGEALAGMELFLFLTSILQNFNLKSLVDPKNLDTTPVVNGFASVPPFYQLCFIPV

[10] = microbe, parasite or virus in culture; format: functional; conditions: Mycobacterium tuberculosis
Leucine aminopeptidase = target: T2, Leucine aminopeptidase (Plasmodium falciparum 3D7, UniProt Q8IL11); test: P. falciparum M17LAP inhibitors, primary screen, biochemical, fluorogenic H-Leu-NHMec substrate, 1536-well (AID 1619); format: functional
T2 sequence (Q8IL11 whole entry): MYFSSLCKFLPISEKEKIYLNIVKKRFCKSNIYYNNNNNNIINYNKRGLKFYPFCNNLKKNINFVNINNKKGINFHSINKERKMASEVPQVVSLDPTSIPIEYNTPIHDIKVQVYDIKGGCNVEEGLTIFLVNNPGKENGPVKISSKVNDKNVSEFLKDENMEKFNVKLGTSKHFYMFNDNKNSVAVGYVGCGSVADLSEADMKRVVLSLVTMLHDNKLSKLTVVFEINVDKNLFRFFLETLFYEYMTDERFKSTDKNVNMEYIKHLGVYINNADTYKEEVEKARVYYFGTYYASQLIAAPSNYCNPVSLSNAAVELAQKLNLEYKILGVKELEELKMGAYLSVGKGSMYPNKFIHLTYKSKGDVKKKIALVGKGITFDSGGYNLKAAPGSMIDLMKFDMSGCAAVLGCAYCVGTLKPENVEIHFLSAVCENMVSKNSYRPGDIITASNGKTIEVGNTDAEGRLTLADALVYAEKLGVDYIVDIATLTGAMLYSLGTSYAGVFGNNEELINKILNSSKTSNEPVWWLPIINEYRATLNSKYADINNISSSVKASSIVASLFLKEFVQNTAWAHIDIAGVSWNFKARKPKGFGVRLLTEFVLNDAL

Cytochrome P450 2C19 = Cytochrome P450 2C19 (Homo sapiens, UniProt P33261); test: Cytochrome panel assay with activity outcomes. Panel member name: p450-cyp2c19 Compounds with AC50 equal or less than 10 uM are considered active; format: functional; conditions: read-out: AC50
Cytochrome P450 2C19, sequence (P33261 whole entry): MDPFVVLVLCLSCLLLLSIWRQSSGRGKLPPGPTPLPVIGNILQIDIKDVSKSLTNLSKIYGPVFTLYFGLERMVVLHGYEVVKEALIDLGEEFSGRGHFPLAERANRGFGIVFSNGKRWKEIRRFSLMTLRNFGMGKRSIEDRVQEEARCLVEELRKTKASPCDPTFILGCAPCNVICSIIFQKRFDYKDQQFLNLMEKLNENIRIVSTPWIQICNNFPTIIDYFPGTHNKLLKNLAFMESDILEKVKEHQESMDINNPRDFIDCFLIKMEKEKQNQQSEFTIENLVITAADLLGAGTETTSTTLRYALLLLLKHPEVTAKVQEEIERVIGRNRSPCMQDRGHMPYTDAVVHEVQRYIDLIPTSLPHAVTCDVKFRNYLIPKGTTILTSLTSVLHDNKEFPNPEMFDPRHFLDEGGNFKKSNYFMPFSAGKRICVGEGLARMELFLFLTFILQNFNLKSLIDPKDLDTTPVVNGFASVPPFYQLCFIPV

Cytochrome P450 2D6 = Cytochrome P450 2D6 (Homo sapiens, UniProt P10635);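 note: CYP2D6 member of a cytochrome P450 panel assay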
Cytochrome P450 2D6, sequence (P10635 whole entry): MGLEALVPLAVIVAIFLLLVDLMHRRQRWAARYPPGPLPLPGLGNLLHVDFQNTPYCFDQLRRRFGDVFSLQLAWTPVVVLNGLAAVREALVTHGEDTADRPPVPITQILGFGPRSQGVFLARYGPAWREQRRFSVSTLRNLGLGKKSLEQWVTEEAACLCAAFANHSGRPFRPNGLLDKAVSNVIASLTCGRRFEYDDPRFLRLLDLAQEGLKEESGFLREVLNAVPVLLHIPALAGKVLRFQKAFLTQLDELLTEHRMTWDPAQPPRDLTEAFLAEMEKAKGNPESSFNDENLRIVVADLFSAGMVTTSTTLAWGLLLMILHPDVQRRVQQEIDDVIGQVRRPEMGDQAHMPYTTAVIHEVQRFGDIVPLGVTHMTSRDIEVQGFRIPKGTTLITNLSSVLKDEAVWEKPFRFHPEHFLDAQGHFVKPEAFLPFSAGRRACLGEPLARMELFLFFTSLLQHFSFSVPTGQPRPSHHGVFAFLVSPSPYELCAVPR

H9c2 = test: cells; format: functional, cell-based; conditions: Rattus norvegicus, H9c2, Myocardium;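 note: confirmatory concentration-response retest of ultra-high-throughput screening hits for modulation of myocardial damage; cell death induced by hydrogen peroxide oxidative stress; compound pretreatment for 60 min then peroxide exposure for 2 h; potency is for protecting the cells against peroxide damage rather than for killing them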
Paired box protein Pax-8 = Paired box protein Pax-8 (Homo sapiens, UniProt Q06710); test: PAX8 transcriptional activity inhibition in RMG-I – RMG-I cells, luciferase, cherry-pick, dose response (AID 687027); format: functional, cell-based;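 note: luciferase reporter driven by Pax8 target thyroperoxidase promoter measured by SteadyGlo luminescence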
Paired box protein Pax-8, sequence (Q06710 whole entry): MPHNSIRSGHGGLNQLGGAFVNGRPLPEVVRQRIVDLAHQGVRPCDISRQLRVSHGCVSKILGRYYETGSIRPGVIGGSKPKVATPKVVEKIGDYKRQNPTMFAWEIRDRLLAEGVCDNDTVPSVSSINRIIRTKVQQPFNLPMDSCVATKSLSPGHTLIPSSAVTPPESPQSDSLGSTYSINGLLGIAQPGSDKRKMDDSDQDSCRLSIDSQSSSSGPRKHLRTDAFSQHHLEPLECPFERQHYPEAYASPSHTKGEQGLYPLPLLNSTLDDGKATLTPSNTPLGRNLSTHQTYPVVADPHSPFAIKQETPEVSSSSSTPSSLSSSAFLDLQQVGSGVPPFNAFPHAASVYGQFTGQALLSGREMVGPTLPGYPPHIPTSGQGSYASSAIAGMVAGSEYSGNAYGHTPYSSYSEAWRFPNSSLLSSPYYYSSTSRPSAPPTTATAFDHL

[11] = OVCAR-3 cell viability loss – plate reader, dry powder samples, PAX8 inhibitor project, dose response (AID 743044); format: functional, cell-based
[12] = P. falciparum Dd2 growth inhibitors, dose response, SYBR Green, cherry-picked samples (AID 1159567); format: functional, cell-based

Cc1[nH]c2ccccc2c1CN1CCc2ccccc2C1
EC50 (cells [1]): > 29.9 µM (inactive)
IC50 (cells [2]): > 29.9 µM (inactive)

COc1ccc(NC(=O)c2cc(CC(C)C)nc3ccccc23)cc1
AC50 [3]: < 0.26 µM (active)
AC50 [4]: 1.11 µM (active)
EC50 [5]: > 120 µM (not active)
EC50 [6]: > 120 µM (not active)
AC50 [7]: 0.655 µM (active)
AC50 [8]: 1.06 µM (active)

CC(NC1=NCCS1)c1ccccc1 (stereo not drawn)
EC50 (cells [1]): > 29.9 µM (inactive)
IC50 (cells [2]): > 29.9 µM (inactive)

CNCc1ccccc1Sc1ccc(OC)c(OC)c1
AC50 [9]: > 20 µM (inactive)

COc1ccc(Oc2ncc3nc(-c4cn(C)c5ccccc45)c(=O)n(C)c3n2)cc1
AC50 (Cytochrome P450 3A4): 15.8 µM (inconclusive)
AC50 (Cytochrome P450 2C9): inconclusive

Cc1nc2cnc(N(C)C)nc2n(Cc2ccc(F)cc2)c1=O
AC50 (Cytochrome P450 2C9): inconclusive

COc1ccc(SC[C@H](Cc2ccccc2)N2CCN(CCc3ccccc3)CCC2=O)cc1
CC50 [10]: > 40 µM (active)

CC1(C)Cc2c(C#N)c(N3CCN(C(=O)c4ccccc4)CC3)nc(Cc3ccccc3)c2CO1
CC50 [10]: 39 µM (active)

Cc1noc(NS(=O)(=O)c2ccc(NC(=O)CSc3nc4ccccc4s3)cc2)c1C
IC50 (Leucine aminopeptidase): 15.3 µM (active)

CCCn1c2c(c(O)c(C(=O)NCCCN(CC)CC)c1=O)CCCC2
AC50 [9]: > 20 µM (inactive)

CC(=O)NC1C(c2nc3ccccc3s2)=C(c2ccccc2)C(=O)N1c1ccc(C)cc1 (stereo not drawn)
CC50 [10]: > 40 µM (active)

COc1ccccc1CNc1cc(-c2cccc(NS(C)(=O)=O)c2)ncn1
AC50 (Cytochrome P450 2C9): inconclusive
AC50 (Cytochrome P450 2C19): 20 µM (inconclusive)

CCC(=O)Nc1cccc(-c2nnc(-c3cccc(NC(=O)CC)c3)o2)c1
AC50 (Cytochrome P450 2D6): 17.8 µM (inconclusive)
IC50 (H9c2): > 79 µM (inactive)
AC50 (Cytochrome P450 2C9): inconclusive

Cc1ccc(OCC(=O)Nc2ccc(O)c(C(=O)O)c2)cc1C
IC50 (Leucine aminopeptidase): 19.5 µM (active)

CSc1cccc(CNC(=O)C2CCC(=O)N(Cc3cccc(C(F)(F)F)c3)C2)c1 (stereo not drawn)
CC50 [10]: > 40 µM (active)

Cc1nc2ncnn2c(N2CCCC(C(=O)Nc3ccc4c(c3)CCC4)C2)c1C (stereo not drawn)
AC50 [3]: 17.1 µM (active)
AC50 [4]: 8.01 µM (active)
AC50 [7]: 3.21 µM (active)
AC50 [8]: 3.66 µM (active)

O=S(=O)(c1ccc(Cl)cc1)N1CCCN(c2nc3ccc(Cl)cc3s2)CC1
AC50 [3]: 0.922 µM (active)
AC50 [4]: 5.18 µM (active)
AC50 [7]: 3.94 µM (active)
AC50 [8]: 4.14 µM (active)

CC1(C)[N+]([O-])=CC(c2cccs2)=[N+]1[O-]
IC50 (Leucine aminopeptidase): 22.7 µM (active)

CN1C(C(=O)NCCc2cccs2)CC2Cn3c(nc4ccccc43)C21 (stereo not drawn)
EC50 (cells [1]): > 29.9 µM (inactive)
IC50 (cells [2]): > 29.9 µM (inactive)

C[C@@H]1CN([C@H](C)CO)C(=O)c2cc(NS(=O)(=O)c3cccs3)ccc2O[C@@H](C)CCCCO[C@@H]1CN(C)Cc1ccc(C(F)(F)F)cc1
AC50 (Paired box protein Pax-8): 4.55 µM (active)
AC50 [11]: 58.7 µM (active)

COc1ccc(/N=C(/C2=C(O)CCC2)C2CCCCC2)cc1
CC50 [10]: > 40 µM (active)

C/C=C/c1ccc2n(c1=O)C[C@H]1[C@H](CO)[C@@H](C(=O)N3CCC(Cc4ccccc4)CC3)N(CCC)[C@@H]21.C/C=C\c1ccc2n(c1=O)C[C@H]1[C@H](CO)[C@@H](C(=O)N3CCC(Cc4ccccc4)CC3)N(CCC)[C@@H]21
AC50 [12]: 15.8 µM (active)

C[C@@H]1CN([C@@H](C)CO)C(=O)c2cc(C#Cc3ccccc3)cnc2O[C@H]1CN(C)C(=O)CN(C)C
AC50 [12]: 5.45 µM (active)

C=CCC1C=C(Cc2ccccc2)CC(CC=C)N1 (stereo not drawn)
AC50 [9]: > 20 µM (inactive)
